Source: ChEMBL document CHEMBL4715894, “Design and synthesis of an anthranyl bridged optically active dinuclear iron(II)-ligand and evaluation of DNA-cleaving activity” (Bioorg Med Chem Lett, 2021)
Active and inactive are the calls of the source. No cut-off for these calls is given here.

Experiments:
Assay type in all cases: nucleic-acid assay
DNA [1] = assay: Induction of DNA cleavage in Escherichia coli ER2272 pUC19 plasmid DNA assessed as decrease in linear DNA at 0.1 to 50 uM in presence of Fe2+ at 30 to 50 uM after 60 mins by ethidium bromide staining based densitometric method; conditions: dose 0.1-50 µM
DNA [2] = assay: Induction of DNA cleavage in Escherichia coli ER2272 pUC19 plasmid DNA assessed as decrease in linear DNA at 15 uM in presence of Fe2+ at 30 uM <=15 min by ethidium bromide staining based densitometric method; conditions: time min <=15
DNA [3] = assay: Induction of DNA cleavage in Escherichia coli ER2272 pUC19 plasmid DNA assessed as decrease in relaxed circular DNA at 0.1 to 50 uM in presence of Fe2+ at 30 to 50 uM after 60 mins by ethidium bromide staining based densitometric method; conditions: dose 0.1-50 µM
DNA [4] = assay: Induction of DNA cleavage in Escherichia coli ER2272 pUC19 plasmid DNA assessed as decrease in relaxed circular DNA at 15 uM in presence of Fe2+ at 30 uM <=15 min by ethidium bromide staining based densitometric method; conditions: time min <=15
dsDNA [5] = assay: Induction of DNA cleavage in pBluescript II SK+ DNA (unknown origin) assessed as cleaved in 5'-AATTCCGGAA-3' sequence at 5 uM in presence of Fe2+ at 30 uM after 10 mins by PAGE based DNA sequencing analysis
DNA [6] = assay: Induction of DNA cleavage in Escherichia coli ER2272 pUC19 plasmid DNA assessed as increase in relaxed circular DNA at 15 uM in presence of Fe2+ at 30 uM after 1 min by ethidium bromide staining based densitometric method
DNA [7] = assay: Induction of DNA cleavage in Escherichia coli ER2272 pUC19 plasmid DNA assessed as decrease in supercoiled DNA at 15 uM in presence of Fe2+ at 30 uM after 1 min by ethidium bromide staining based densitometric method relative to control
DNA [8] = assay: Induction of DNA cleavage in Escherichia coli ER2272 pUC19 plasmid DNA assessed as linear DNA at 0.1 to 50 uM in presence of Fe2+ at >5 uM uM after 60 mins by ethidium bromide staining based densitometric method; conditions: dose 0.1-50 µM
DNA [9] = assay: Induction of DNA cleavage in Escherichia coli ER2272 pUC19 plasmid DNA assessed as decrease in supercoiled DNA at 0.1 to 50 uM in presence of Fe2+ at 30 to 50 uM after 60 mins by ethidium bromide staining based densitometric method; conditions: dose 0.1-50 µM
DNA [10] = assay: Induction of DNA cleavage in Escherichia coli ER2272 pUC19 plasmid DNA assessed as decrease in supercoiled DNA at 0.1 to 50 uM in presence of Fe2+ at 10 uM after 60 mins by ethidium bromide staining based densitometric method relative to control; set-up: scale not given: the % may be the effect or the level left; conditions: dose 0.1-50 µM
DNA [11] = assay: Induction of DNA cleavage in Escherichia coli ER2272 pUC19 plasmid DNA assessed as decrease in relaxed circular DNA at 0.1 to 50 uM in presence of Fe2+ at 10 uM after 60 mins by ethidium bromide staining based densitometric method; conditions: dose 0.1-50 µM
dsDNA [12] = assay: Induction of DNA cleavage in pBluescript II SK+ DNA (unknown origin) assessed as cleaved in 5'-TTAATT-3' sequence at 5 uM in presence of Fe2+ at 30 uM after 10 mins by PAGE based DNA sequencing analysis
DNA [13] = assay: Induction of DNA cleavage in Escherichia coli ER2272 pUC19 plasmid DNA assessed as increase in linear DNA at 15 uM in presence of Fe2+ at 30 uM after 1 min by ethidium bromide staining based densitometric method
DNA [14] = assay: Induction of DNA cleavage in Escherichia coli ER2272 pUC19 plasmid DNA assessed as decrease in supercoiled DNA at 0.1 to 50 uM in presence of Fe2+ at 0.1 to 5 uM after 60 mins by ethidium bromide staining based densitometric method; conditions: dose 0.1-50 µM
dsDNA [15] = assay: Induction of DNA cleavage in pBluescript II SK+ DNA (unknown origin) assessed as cleaved in 5'-CT-3' sequence at 30 uM in presence of Fe2+ at 30 uM after 30 mins by PAGE based DNA sequencing analysis
DNA [16] = assay: Induction of DNA cleavage in Escherichia coli ER2272 pUC19 plasmid DNA assessed as decrease in supercoiled DNA at 30 uM in presence of Fe2+ at 30 uM by ethidium bromide staining based densitometric method; conditions: time min <=15
DNA [17] = assay: Induction of DNA cleavage in Escherichia coli ER2272 pUC19 plasmid DNA assessed as increase in relaxed circular DNA at 30 uM in presence of Fe2+ at 30 uM by ethidium bromide staining based densitometric method; conditions: time min <=15
DNA [18] = assay: Induction of DNA cleavage in Escherichia coli ER2272 pUC19 plasmid DNA assessed as linear DNA at 30 uM in presence of Fe2+ at 30 uM up to 15 mins by ethidium bromide staining based densitometric method; conditions: time min <=15

| Activity (DNA [1]) | Activity (DNA [2]) | Activity (DNA [3]) | Activity (DNA [4]) | Activity (dsDNA [5]) | Activity (DNA [6]) | Activity (DNA [7]) | Activity (DNA [8]) | Activity (DNA [9]) | Activity (DNA [10]) | Activity (DNA [11]) | Activity (dsDNA [12]) | Activity (DNA [13]) | Activity (DNA [14]) | Activity (dsDNA [15]) | Activity (DNA [16]) | Activity (DNA [17]) | Activity (DNA [18]) | Structure (SMILES) |
| --- | --- | --- | --- | --- | --- | --- | --- | --- | --- | --- | --- | --- | --- | --- | --- | --- | --- | --- |
| Active | Active | Active | Active | Active | Active | Active | Active | Active | Active | Active | Active | Active |  |  |  |  |  | c1ccc(CN(Cc2ccccn2)[C@@H]2CCCC[C@H]2NCc2cccc3cc4cccc(CN[C@@H]5CCCC[C@H]5N(Cc5ccccn5)Cc5ccccn5)c4cc23)nc1 |
|  |  |  |  |  |  |  | Active |  | 100% |  |  |  | Active | Active |  |  |  | N[C@H]1CCCC[C@@H]1N(Cc1ccccn1)Cc1ccccn1 |
|  |  |  |  |  |  |  | Active |  | 100% |  |  |  | Active | Active | Active | Active | inactive | N[C@@H]1CCCC[C@H]1N(Cc1ccccn1)Cc1ccccn1 |
| Active |  | Active |  | Active |  |  | Active | Active | Active | Active | Active |  |  |  |  |  |  | c1ccc(CN(Cc2ccccn2)[C@H]2CCCC[C@@H]2NCc2cccc3cc4cccc(CN[C@H]5CCCC[C@@H]5N(Cc5ccccn5)Cc5ccccn5)c4cc23)nc1 |
